Source: the supplement of paper PMC10307832

Key:
Assay in all cases: relative viability (nuclei count vs DMSO), 5 days (fraction); higher = more cells survive
Elesclomol + Navitoclax = compound: CN(NC(=O)CC(=O)NN(C)C(=S)c1ccccc1)C(=S)c1ccccc1 [Elesclomol] + CC1(C)CCC(c2ccc(Cl)cc2)=C(CN2CCN(c3ccc(C(=O)NS(=O)(=O)c4ccc(N[C@H](CCN5CCOCC5)CSc5ccccc5)c(S(=O)(=O)C(F)(F)F)c4)cc3)CC2)C1 [Navitoclax] (partner 0.5 µM)
Summary of the method: (§1)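 Lung cancer cell lines were seeded in 1536-well plates and dosed by pin tool the next day, with either a single drug or a fixed anchor-drug dose combined with five library-drug doses (not always all listed) spaced in √10 steps. Five days later, one step fixed the cells and stained their nuclei (final 0.05% Triton X-100, 1% formaldehyde, 1 ug/ml Hoechst), and nuclei were counted on 4× images. Relative viability is the nuclei count in treated wells divided by the count in vehicle wells, and each value is the median of duplicate plates.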

Elesclomol + Foretinib = compound: CN(NC(=O)CC(=O)NN(C)C(=S)c1ccccc1)C(=S)c1ccccc1 [Elesclomol] + COc1cc2c(Oc3ccc(NC(=O)C4(C(=O)Nc5ccc(F)cc5)CC4)cc3F)ccnc2cc1OCCCN1CCOCC1 [Foretinib] (partner 0.25 µM)
Summary of the method: as §1

Elesclomol + OSI-027 = compound: CN(NC(=O)CC(=O)NN(C)C(=S)c1ccccc1)C(=S)c1ccccc1 [Elesclomol] + COc1cccc2cc(-c3nc([C@H]4CC[C@H](C(=O)O)CC4)n4ncnc(N)c34)[nH]c12 [OSI-027] (partner 0.5 µM)
Summary of the method: as §1

Elesclomol + Tozasertib = compound: CN(NC(=O)CC(=O)NN(C)C(=S)c1ccccc1)C(=S)c1ccccc1 [Elesclomol] + Cc1cc(Nc2cc(N3CCN(C)CC3)nc(Sc3ccc(NC(=O)C4CC4)cc3)n2)n[nH]1 [Tozasertib] (partner 0.1 µM)
Summary of the method: as §1

Elesclomol + Pemetrexed = compound: CN(NC(=O)CC(=O)NN(C)C(=S)c1ccccc1)C(=S)c1ccccc1 [Elesclomol] + Nc1nc2[nH]cc(CCc3ccc(C(=O)N[C@@H](CCC(=O)O)C(=O)O)cc3)c2c(=O)[nH]1 [Pemetrexed] (partner 0.2 µM)
Summary of the method: as §1

Cell Line	relative viability (Elesclomol + Navitoclax; first compound 0.003162 µM)	relative viability (Elesclomol + Navitoclax; first compound 0.01 µM)	relative viability (Elesclomol + Navitoclax; first compound 0.03162 µM)	relative viability (Elesclomol + Navitoclax; first compound 0.1 µM)	relative viability (Elesclomol + Foretinib; first compound 0.003162 µM)	relative viability (Elesclomol + Foretinib; first compound 0.01 µM)	relative viability (Elesclomol + Foretinib; first compound 0.03162 µM)	relative viability (Elesclomol + Foretinib; first compound 0.1 µM)	relative viability (Elesclomol + OSI-027; first compound 0.003162 µM)	relative viability (Elesclomol + OSI-027; first compound 0.01 µM)	relative viability (Elesclomol + OSI-027; first compound 0.03162 µM)	relative viability (Elesclomol + OSI-027; first compound 0.1 µM)	relative viability (Elesclomol + Tozasertib; first compound 0.003162 µM)	relative viability (Elesclomol + Tozasertib; first compound 0.01 µM)	relative viability (Elesclomol + Tozasertib; first compound 0.03162 µM)	relative viability (Elesclomol + Tozasertib; first compound 0.1 µM)	relative viability (Elesclomol + Pemetrexed; first compound 0.003162 µM)	relative viability (Elesclomol + Pemetrexed; first compound 0.01 µM)	relative viability (Elesclomol + Pemetrexed; first compound 0.03162 µM)	relative viability (Elesclomol + Pemetrexed; first compound 0.1 µM)
201T	1.16	1.16	1.23	1.16	0.945	0.671	0.265	0.265	0.683	0.587	0.386	0.369	0.984	0.88	0.911	0.536	0.361	0.369	0.309	0.394
A549	0.798	0.181	0.0437	0.03	0.886	0.504	0.0597	0.0242												
A-427	0.904	0.827	1	0.499	0.981	0.956	0.917	0.157	0.45	0.2	0.3	0.149	0.226	0.186	0.149	0.0996	0.937	0.707	0.201	0.186
ABC-1					0.255	0.221	0.259	0.215	0.227	0.19	0.225	0.196	0.193	0.203	0.18	0.187				
BEN	0.049	0.0566	0.0364	0.0268	0.493	0.467	0.296	0.265	0.301	0.256	0.27	0.252	0.592	0.399	0.45	0.402	0.888	0.68	0.408	0.319
CAL-12T	1	0.243	0.123	0.0625	1.04	1.16	0.263	0.144	0.504	0.277	0.139	0.0937	0.268	0.17	0.0901	0.0485	1.03	0.576	0.119	0.0739
COR-L23	0.9	0.616	0.461	0.0852	0.977	0.667	0.418	0.198	0.757	0.408	0.254	0.0774	0.234	0.155	0.15	0.0966	0.212	0.206	0.19	0.155
COR-L 105	0.682	0.427	0.421	0.236	0.985	0.698	0.44	0.176	0.667	0.365	0.27	0.143	0.385	0.285	0.223	0.142	1.13	1.17	0.392	0.27
ChaGo-K-1	0.739	0.374	0.258	0.221	0.838	0.95	0.34	0.186	0.591	0.462	0.221	0.136	0.223	0.177	0.147	0.163	0.268	0.255	0.204	0.147
